Patent US11110088B2, “Imidazopyrazine inhibitors of Bruton's tyrosine kinase” (Acerta Pharma B.V., priority 2015, dated 2021)

How the values were obtained:
[1] = system: CD69 in CD19+ B cells of anti-IgM stimulated PBMCs; assay: Human peripheral blood mononuclear cell (PBMC) CD69 assay; type: cell-based; conditions: 2 h compound, then anti-IgM 18 hours
Method: Example 44—Human Peripheral Blood Mononuclear Cell (PBMC) CD69 Assay
Whole blood was collected in heparin-coated Vacutainer tubes (BD Biosciences, San Jose, Calif.) and used for isolation of PBMCs using Ficoll-Hypaque (Pharmacia, Uppsala, Sweden). Isolated PBMCs were cryopreserved in 90% FCS/10% DMSO until later use.
Cells from cryogenic storage were thawed in a 37° C. water bath, diluted with RPMI/1% FCS, washed 2 times, and then plated at 1×10^5 cells per well in RPMI/10% FCS.
Serial dilutions log 10 from 10 mM to 316 nM of test compounds are made in 100% DMSO, followed by a 100-fold dilution into RPMI/1% FCS. For each well, 10 μL was then transferred to the deep well plate containing 90 μL of PBMC cells. Final compound concentration range in the assay ranged from 10 μM to 0.316 nM, with a final DMSO concentration of 0.1%. PBMCs are then incubated for 2 h at 37° C. in presence or absence of test compounds, prior to stimulation with goat F(ab′)2 anti-IgM (Southern Biotech, #2022-14, final concentration in assay 5 μg/mL) for 18 hours.
Following stimulation with anti-IgM, PBMCs were incubated on ice for 30 min with anti-CD69-FITC, anti-CD19-BV421 (BD Biosciences #555530 and #562440, respectively) and 7AAD (Life Technologies #A1310). Flow cytometry was performed and fluorescence values were obtained from the CD69-FITC channel in CD19+ gated life B cells. ECso values are determined by curve fitting of the experimental results using GraphPad Prism.

BTK = BTK (Homo sapiens (Human), UniProt Q06187); assay: BTK enzyme activity, IMAP assay; type: biochemical; conditions: 60 min pre-incubation; 5 μM ATP
Chain of BTK (Q06187 whole entry): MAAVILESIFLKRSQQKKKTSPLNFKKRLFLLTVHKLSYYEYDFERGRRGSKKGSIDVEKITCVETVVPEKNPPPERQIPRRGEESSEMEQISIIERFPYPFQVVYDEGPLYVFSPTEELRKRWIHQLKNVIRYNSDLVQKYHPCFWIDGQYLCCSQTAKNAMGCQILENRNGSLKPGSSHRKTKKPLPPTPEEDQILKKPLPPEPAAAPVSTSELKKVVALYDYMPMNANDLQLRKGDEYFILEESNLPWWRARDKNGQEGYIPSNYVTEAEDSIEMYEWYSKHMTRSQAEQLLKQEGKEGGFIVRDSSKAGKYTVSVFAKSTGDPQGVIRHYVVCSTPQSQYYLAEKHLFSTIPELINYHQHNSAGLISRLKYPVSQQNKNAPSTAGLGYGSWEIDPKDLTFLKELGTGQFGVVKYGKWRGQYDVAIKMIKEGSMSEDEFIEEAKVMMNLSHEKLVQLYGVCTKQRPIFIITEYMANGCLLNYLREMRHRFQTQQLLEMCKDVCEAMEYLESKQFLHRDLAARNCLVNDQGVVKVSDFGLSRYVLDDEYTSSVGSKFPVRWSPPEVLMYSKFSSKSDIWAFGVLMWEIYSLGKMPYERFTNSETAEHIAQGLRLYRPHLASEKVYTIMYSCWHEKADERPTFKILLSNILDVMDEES
Method: BTK enzyme activity is measured using the IMAP (immobilized metal ion affinity-based fluorescence polarization) assay as outlined below.
BTK enzyme (His-BTK (Millipore catalog #14-552)), is diluted to 0.4 U/mL in KR buffer (10 mM Tris-HCl, 10 mM MgCl2, 0.01% Tween-20, 0.05% NaN3, 1 mM DTT, 2 mM MnCl2, pH 7.2).
(§1) Serial dilutions log 10 from 2 mM to 63.2 nM of test compounds are made in 100% DMSO. The dilutions in DMSO are then diluted 50-fold in KR-buffer. Final compound concentration range in the assay ranged from 10 μM to 0.316 nM.
The assay is performed as follows: 5 μL/well of test compound in KR buffer (final DMSO concentration in the assay is 1%) is mixed with 5 µl/well of 0.4 U/mL BTK enzyme (final concentration in the assay is 0.1 U/mL). Test compounds and BTK enzyme are pre-incubated 60 minutes at room temperature, before adding 5 μL/well of 200 nM Fluorescin labeled substrate peptide (Blk/Lyntide substrate, e.g. #R7188/#R7233, Molecular Devices) in KR-buffer. Final peptide substrate concentration in assay is 50 nM. […] Following incubation for 2 hours at room temperature the enzyme reaction is stopped by adding 40 μL/well IMAP Progressive Binding Solution (according to suppliers (Molecular Devices) protocol using 75% 1× buffer A and 25% 1× buffer B with 1:600 Progressive Binding Solution). After 60 min incubation at room temperature in the dark the FP signal is read. Fluorescence at 535 nm is measured using parallel and perpendicular filters to determine differences in rotation due to binding of the phosphorylated substrate peptide to the beads. Values are calculated as percentage of the difference in readout (ΔmPi) of the controls with and without ATP. IC50 values are determined by curve fitting of the experimental results using Activity Base.

Bmx = Bmx (Homo sapiens (Human), UniProt P51813); assay: BMX enzyme activity, IMAP assay; type: biochemical; conditions: 60 min pre-incubation; 5 μM ATP
Chain of Bmx (P51813 whole entry): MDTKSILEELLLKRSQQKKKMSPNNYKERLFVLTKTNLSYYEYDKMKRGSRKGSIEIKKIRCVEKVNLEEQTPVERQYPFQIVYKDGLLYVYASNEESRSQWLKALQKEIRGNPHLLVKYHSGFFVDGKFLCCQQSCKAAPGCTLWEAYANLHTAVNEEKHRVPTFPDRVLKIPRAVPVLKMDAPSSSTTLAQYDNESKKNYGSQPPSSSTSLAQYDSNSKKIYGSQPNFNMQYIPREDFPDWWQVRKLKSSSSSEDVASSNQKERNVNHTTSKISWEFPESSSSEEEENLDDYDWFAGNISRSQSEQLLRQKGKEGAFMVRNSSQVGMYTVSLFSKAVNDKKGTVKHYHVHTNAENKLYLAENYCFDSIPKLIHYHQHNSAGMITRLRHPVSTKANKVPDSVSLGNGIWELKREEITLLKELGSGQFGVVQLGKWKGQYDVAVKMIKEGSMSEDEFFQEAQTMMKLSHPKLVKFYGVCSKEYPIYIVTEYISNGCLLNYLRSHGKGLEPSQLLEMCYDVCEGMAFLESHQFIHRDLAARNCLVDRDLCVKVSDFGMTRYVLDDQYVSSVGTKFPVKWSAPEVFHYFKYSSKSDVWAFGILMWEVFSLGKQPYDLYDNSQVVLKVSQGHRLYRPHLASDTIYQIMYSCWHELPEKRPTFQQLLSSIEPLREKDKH
Method: BMX enzyme activity is measured using the IMAP (immobilized metal ion affinity-based fluorescence polarization) assay as outlined below.
(§2) The dilutions in DMSO are then diluted 50-fold in KR-buffer.
(§3) Test compounds and BMX enzyme are pre-incubated 60 minutes at room temperature, before adding 5 μL/well of 200 nM Fluorescin labeled substrate peptide (Blk/Lyntide substrate #R7188, Molecular Devices) in KR-buffer. Final peptide substrate concentration in assay is 50 nM. […] IC50 values are determined by curve fitting of the experimental results using Activity Base.

Txk = Txk (Homo sapiens (Human), UniProt P42681); assay: TXK enzyme activity, IMAP assay; type: biochemical; conditions: 60 min pre-incubation; 1 μM ATP
Chain of Txk (P42681 whole entry): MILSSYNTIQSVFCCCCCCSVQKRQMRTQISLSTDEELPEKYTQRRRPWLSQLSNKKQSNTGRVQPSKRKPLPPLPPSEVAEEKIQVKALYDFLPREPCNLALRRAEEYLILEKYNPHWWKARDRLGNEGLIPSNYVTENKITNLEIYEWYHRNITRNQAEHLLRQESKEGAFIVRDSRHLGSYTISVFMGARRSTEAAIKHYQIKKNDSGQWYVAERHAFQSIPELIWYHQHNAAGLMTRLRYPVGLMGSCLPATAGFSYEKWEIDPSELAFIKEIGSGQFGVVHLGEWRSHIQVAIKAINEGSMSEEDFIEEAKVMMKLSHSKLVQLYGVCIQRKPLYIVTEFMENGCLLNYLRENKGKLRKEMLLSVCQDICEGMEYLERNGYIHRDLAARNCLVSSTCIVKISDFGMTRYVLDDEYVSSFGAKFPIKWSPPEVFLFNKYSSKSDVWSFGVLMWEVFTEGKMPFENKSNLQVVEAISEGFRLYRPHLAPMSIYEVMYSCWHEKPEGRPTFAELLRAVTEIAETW
Method: TXK enzyme activity is measured using the IMAP (immobilized metal ion affinity-based fluorescence polarization) assay as outlined below.
TXK enzyme (Millipore #14-761), is diluted to 2.5 U/mL in KR buffer (10 mM Tris-HCl, 10 mM MgCl2, 0.01% Tween-20, 0.1% NaN3, 1 mM DTT, 2 mM MnCl2, pH 7.5).
as §1
The assay is performed as follows: 5 μL/well of test compound in KR buffer (final DMSO concentration in the assay is 1%) is mixed with 5 μL/well of 2.5 U/mL TXK enzyme (final concentration in the assay is 0.625 U/mL (4.4 nM)). Test compounds and TXK enzyme are pre-incubated 60 minutes at room temperature, before adding 5 μL/well of 200 nM Fluorescin labeled substrate peptide (Blk/Lyntide substrate #R7188, Molecular Devices) in KR-buffer. Final peptide substrate concentration in assay is 50 nM. […] Following incubation for 2 hours at room temperature the enzyme reaction is stopped by adding 40 μL/well IMAP Progressive Binding Solution (according to suppliers (Molecular Devices) protocol using 60% 1× buffer A and 40% 1× buffer B with 800× diluted beads (Progressive Binding System, Molecular Devices). After 60 min incubation at room temperature in the dark the FP signal is read. Fluorescence at 535 nm is measured using parallel and perpendicular filters to determine differences in rotation due to binding of the phosphorylated substrate peptide to the beads. Values are calculated as percentage of the difference in readout (ΔmPi) of the controls with and without ATP. IC50 values are determined by curve fitting of the experimental results using Activity Base.

EGFR WT = EGFR WT (Homo sapiens (Human), UniProt P00533); assay: EGFR enzyme activity, IMAP assay; type: biochemical; conditions: 60 min pre-incubation; 2 μM ATP
Chain of EGFR WT (P00533 25-1210): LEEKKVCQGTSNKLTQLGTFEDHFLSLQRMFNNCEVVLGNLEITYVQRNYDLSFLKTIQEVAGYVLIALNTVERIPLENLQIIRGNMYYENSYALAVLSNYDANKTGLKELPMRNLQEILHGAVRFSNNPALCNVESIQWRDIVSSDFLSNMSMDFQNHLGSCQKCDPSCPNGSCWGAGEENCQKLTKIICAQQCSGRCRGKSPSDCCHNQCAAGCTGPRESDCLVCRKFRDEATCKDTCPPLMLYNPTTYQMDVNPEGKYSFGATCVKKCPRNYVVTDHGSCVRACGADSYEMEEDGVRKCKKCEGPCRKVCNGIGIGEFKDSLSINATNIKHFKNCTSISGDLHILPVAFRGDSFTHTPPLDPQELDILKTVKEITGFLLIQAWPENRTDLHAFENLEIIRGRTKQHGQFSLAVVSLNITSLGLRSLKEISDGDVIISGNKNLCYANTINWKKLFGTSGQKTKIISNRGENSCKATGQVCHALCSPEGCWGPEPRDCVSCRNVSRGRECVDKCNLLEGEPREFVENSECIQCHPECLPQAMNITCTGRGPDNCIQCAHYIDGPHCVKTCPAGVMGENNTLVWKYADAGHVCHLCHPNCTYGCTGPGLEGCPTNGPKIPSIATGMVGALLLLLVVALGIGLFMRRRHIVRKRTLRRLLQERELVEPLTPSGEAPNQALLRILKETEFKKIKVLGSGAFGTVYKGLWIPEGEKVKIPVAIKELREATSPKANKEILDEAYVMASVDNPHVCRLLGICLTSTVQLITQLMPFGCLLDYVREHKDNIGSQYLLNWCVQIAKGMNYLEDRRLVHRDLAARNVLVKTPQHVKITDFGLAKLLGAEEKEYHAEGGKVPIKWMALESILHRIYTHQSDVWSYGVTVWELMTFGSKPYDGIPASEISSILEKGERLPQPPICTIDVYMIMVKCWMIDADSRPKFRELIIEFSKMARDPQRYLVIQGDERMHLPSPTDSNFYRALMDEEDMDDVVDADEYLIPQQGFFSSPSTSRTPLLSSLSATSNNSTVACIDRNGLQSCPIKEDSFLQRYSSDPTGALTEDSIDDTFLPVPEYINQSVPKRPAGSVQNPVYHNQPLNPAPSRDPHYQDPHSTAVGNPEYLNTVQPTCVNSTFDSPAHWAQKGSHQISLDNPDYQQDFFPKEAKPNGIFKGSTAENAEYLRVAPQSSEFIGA
Method: EGFR enzyme activity is measured using the IMAP (immobilized metal ion affinity-based fluorescence polarization) assay as outlined below.
EGFR enzyme (Invitrogen catalog #PR7295B), is diluted to 2.5 μg/mL in KR buffer (10 mM Tris-HCl, 10 mM MgCl2, 0.01% Tween-20, 0.1% NaN3, 1 mM DTT, 2 mM MnCl2, pH 7.5).
Final peptide substrate concentration in assay is 50 nM. […] Following incubation for 60 min at room temperature in the dark the enzyme reaction is stopped by adding 40 μL/well IMAP Progressive Binding Solution (according to suppliers (Molecular Devices) protocol using 20% 1× buffer A and 80% 1× buffer B with 600× diluted beads). After 60 min incubation at room temperature in the dark the FP signal is read. […] Values are calculated as percentage of the difference in readout (ΔmPi) of the controls with and without ATP. IC50 values are determined by curve fitting of the experimental results using GraphPad Prism6.

ITK = ITK (Homo sapiens (Human), UniProt Q08881); assay: ITK enzyme activity, IMAP assay; type: biochemical; conditions: 60 min pre-incubation; 5 μM ATP
Chain of ITK (Q08881 whole entry): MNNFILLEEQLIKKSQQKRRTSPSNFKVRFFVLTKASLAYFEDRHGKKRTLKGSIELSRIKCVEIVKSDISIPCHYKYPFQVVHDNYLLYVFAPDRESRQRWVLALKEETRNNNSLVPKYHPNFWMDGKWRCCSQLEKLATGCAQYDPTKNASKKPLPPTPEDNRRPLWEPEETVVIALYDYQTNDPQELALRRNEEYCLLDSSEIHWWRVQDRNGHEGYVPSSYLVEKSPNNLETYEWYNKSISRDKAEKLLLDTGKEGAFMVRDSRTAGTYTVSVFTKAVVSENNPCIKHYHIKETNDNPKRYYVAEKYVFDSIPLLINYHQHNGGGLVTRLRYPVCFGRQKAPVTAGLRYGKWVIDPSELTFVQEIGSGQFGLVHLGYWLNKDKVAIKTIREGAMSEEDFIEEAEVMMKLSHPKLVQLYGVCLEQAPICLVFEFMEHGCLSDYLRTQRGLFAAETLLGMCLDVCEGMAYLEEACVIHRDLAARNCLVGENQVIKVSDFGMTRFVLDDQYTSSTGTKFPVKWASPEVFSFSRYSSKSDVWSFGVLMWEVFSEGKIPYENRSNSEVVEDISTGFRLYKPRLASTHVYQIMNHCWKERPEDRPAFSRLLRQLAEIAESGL
Method: ITK enzyme activity is measured using the IMAP (immobilized metal ion affinity-based fluorescence polarization) assay as outlined below.
ITK enzyme (Millipore #14-660M) is diluted to 0.2 U/mL in KR buffer (10 mM Tris-HCl, 10 mM MgCl2, 0.01% Tween-20, 0.1% NaN3, 1 mM DTT, 2 mM MnCl2, pH 7.5)
as §2
as §3, with “ITK” for “BMX”, “#R8124,” for “#R7188,”

Row | IC50 (BTK) | IC50 (Bmx) | IC50 (Txk) | IC50 (EGFR WT) | IC50 (ITK) | SMILES | EC50 [1] | EC50 ([1]; Homo sapiens, PBMC) | EC50 ([1]; PBMC)
1 | 5.1 nM | 6.8 nM | 5.1 nM |  |  | CC#CC(=O)N(C)[C@@H](C)c1nc(-c2ccc(C(=O)Nc3ccc(C)cn3)c(OC)c2)c2c(N)nccn12 [drawing 89] | 5.1 nM |  | 
2 | 11 nM | 15 nM | 14 nM |  |  | COC/C=C/C(=O)N(C)[C@@H](C)c1nc(-c2ccc(C(=O)Nc3ccc(C)cn3)cc2)c2c(N)nccn12 |  | 3.5 nM | 
3 | 1.9 nM | 2.4 nM | 1.7 nM | > 1000 nM | > 1000 nM | CC#CC(=O)N[C@@H](C)c1nc(-c2ccc(C(=O)Nc3ccc(C)cn3)c(OC)c2)c2c(N)nccn12 |  | 1.3 nM | 
4 | 1.8 nM | 1.9 nM | 1.8 nM | 327 nM | 119 nM | CC#CC(=O)N[C@@H](C)c1nc(-c2ccc(C(=O)Nc3cc(C(F)(F)F)ccn3)cc2)c2c(N)nccn12 |  | 0.7 nM | 
5 | 6.7 nM | 11 nM | 11 nM | > 1000 nM | > 1000 nM | CC#CC(=O)N1CCC[C@H]1c1nc(-c2ccc(C(=O)Nc3ccc(C)cn3)c(OC)c2)c2c(N)nccn12 |  | 5.2 nM | 
6 | 2.2 nM | 3.5 nM | 4.7 nM | > 1000 nM | > 1000 nM | CC#CC(=O)N[C@@H](C)c1nc(-c2ccc(C(=O)Nc3cc(C(F)(F)F)ccn3)c(OC)c2)c2c(N)nccn12 |  | 1.4 nM | 
7 | 1.6 nM | 2.9 nM | 2.1 nM |  | 287 nM | CC#CC(=O)N[C@@H](C)c1nc(-c2ccc(C(=O)Nc3ccc(C)cn3)cc2)c2c(N)nccn12 |  | 1 nM | 
8 | 1.6 nM | 3.1 nM | 2 nM | > 1000 nM | > 1000 nM | CC#CC(=O)N[C@@H](C)c1nc(-c2ccc(C(=O)Nc3ccccn3)c(OC)c2)c2c(N)nccn12 |  | 1.3 nM | 
9 | 1.8 nM | 4.5 nM | 3.9 nM | 354 nM | 254 nM | CC#CC(=O)N(C)[C@@H](C)c1nc(-c2ccc(C(=O)Nc3ccc(C)cn3)cc2)c2c(N)nccn12 |  | 1.7 nM | 
10 | 3.9 nM | 3 nM | 2.7 nM | > 1000 nM | > 1000 nM | COC/C=C/C(=O)N[C@@H](C)c1nc(-c2ccc(C(=O)Nc3ccc(C)cn3)c(OC)c2)c2c(N)nccn12 |  | 1.9 nM | 
11 | 4.2 nM | 16 nM | 12 nM |  |  | CC#CC(=O)N(C)[C@@H](C)c1nc(-c2ccc(C(=O)Nc3ccc(C)cn3)c(OC)c2)c2c(N)nccn12 [drawing 83] |  | 3.7 nM | 
12 | 2.1 nM | 7.5 nM | 3.7 nM | 123 nM | > 1000 nM | CC#CC(=O)N(C)[C@@H](C)c1nc(-c2ccc(C(=O)Nc3ccccn3)cc2)c2c(N)nccn12 |  | 1.9 nM | 
13 | 3.9 nM | 12 nM | 7.1 nM | > 1000 nM | > 1000 nM | CC#CC(=O)N1CCC[C@H]1c1nc(-c2ccc(C(=O)Nc3nccs3)c(OC)c2)c2c(N)nccn12 |  | 11 nM | 
14 | 2.4 nM | 2.9 nM | 1.5 nM | 360 nM | 478 nM | COC/C=C/C(=O)N[C@@H](C)c1nc(-c2ccc(C(=O)Nc3ccc(C)cn3)cc2)c2c(N)nccn12 |  | 4.2 nM | 
15 | 2 nM | 4.2 nM | 3 nM | > 1000 nM | > 1000 nM | CC#CC(=O)N(C)[C@@H](C)c1nc(-c2ccc(C(=O)Nc3ccccn3)c(OC)c2)c2c(N)nccn12 |  | 2.4 nM | 
16 | 3.5 nM | 7.9 nM | 13 nM | > 1000 nM | > 1000 nM | CC#CC(=O)N(C)[C@@H](C)c1nc(-c2ccc(C(=O)Nc3cc(C(F)(F)F)ccn3)c(OC)c2)c2c(N)nccn12 |  | 2.7 nM | 

Row | SMILES | IC50 (BTK) | IC50 (Bmx) | IC50 (Txk) | IC50 (EGFR WT) | IC50 (ITK) | EC50 [1] | EC50 ([1]; Homo sapiens, PBMC) | EC50 ([1]; PBMC)
17 | CC#CC(=O)N1CCC[C@H]1c1nc(-c2ccc(C(=O)Nc3cscn3)cc2)c2c(N)nccn12 | 6.3 nM |  | 33.5 nM |  | > 1000 nM |  |  | 9.5 nM
